Tests used:
Meloidogyne incognita = experiment: Critical concentration test (soil treatment, lettuce root galls); type: in vivo; details: active compound concentration of 20 ppm in soil, greenhouse 25° C., evaluated after three weeks
Method: Critical Concentration Test [table] To produce a suitable preparation of active compound, 1 part by weight of active compound is mixed with the stated amount of solvent, the stated amount of emulsifier is added and the concentrate is diluted to the desired concentration. The preparation of active compound is intimately mixed with the soil which is contaminated with the test nematodes. The concentration of the active compound in the preparation is here virtually unimportant, only the amount of active compound per volume unit of soil, which is stated in ppm (=mg/l), is decisive. The treated soil is filled into pots, lettuce is sown in and the pots are kept at a greenhouse temperature of 25° C. After three weeks, the roots of the lettuces are examined for infestation by nematodes (root galls), and the efficacy of the active compound in % is determined. The efficacy is 100% when infestation is avoided completely and 0% when the infestation level is just as high as in the control plants in untreated, but equally infested, soil.

CC(=NC#N)NC(C)c1ccc(Cl)cc1 (centres unmarked) [Preparation Example 1, [R]-N-cyano-N′-(4-chlorophenyl-eth-1-yl)-ethaneimidamide]
kill (efficacy of the active compound in %) (Meloidogyne incognita): 100%
melting point: 125 °C

Source: patent US6638979B1, “Imidamide derivatives” (Bayer Aktiengesellschaft, priority 1998, dated 2003)
